The subject of experiment [1] is A431 squamous carcinoma cells. In words: Comparative cytotoxic effects of free and conjugated daunomycin, Trypan Blue exclusion. Particulars: A431, 1 μg/ml daunomycin or equivalent in conjugate, 48 hours. The class given is cell-based, human. On the procedure:
All cells were maintained in Dulbecco's Modified Medium (DMEM), 10 percent foetal calf serum (FSC) (GIBCO), 2 percent penicillin-streptomycin (Gibco) and 1 percent fungizone (GIBCO) in 5 percent CO2. They were plated at 50 to 60 percent confluence 24 hours before the addition of the toxin. […] Four volumes of 0.2 percent (w/v) Trypan Blue in water was freshly mixed with 1 volume of a saline solution 4.25 percent (w/v) of NaCl in water. One volume of this solution was mixed with 1 volume of PBS on the cell monolayer or to 1 volume of cell suspension in PBS. Observation and scoring took place 48 hours after addition of the toxin (see FIG. 2a and 2b).

For experiment [2], the system named is mixed culture of A431 and WI38 cells. In words: Effect on mixed cultures of tumor (A431) and normal (WI38) cells. The class given is cell-based. Particulars: 0.1 μg/ml (or equivalent free daunomycin), after 15 days. On the procedure:
Cells were maintained as described in Example 4. The WI38 fibroblasts were first plated and the A431 squamous carcinoma cells were plated the next day. […]

Another experiment concerns A431 malignant cells. The experiment is described as follows: Inhibition of cellular protein synthesis (35S methionine incorporation), A431. It is filed as cell-based. Particulars: Homo sapiens, A-431, 48 h, read-out: % of protein Synthesis Inhibition. On the procedure: (§1) The effect of these drugs was evaluated by the degree of inhibition of cellular protein synthesis. For this, we measured the level of incorporation of 35S methionine NEN) into newly synthesized proteins after a 48 hrs exposure to different concentrations of the drugs.
(§2) Cells were plated on 1.5 cm Petri dishes at 50 percent to 60 percent of confluence before the addition of the toxin. […] Cell death consecutive to this addition was measured as follows: the cells were exposed for 1 hour at 37° C. in 500 μl DMEM low methionine medium (GIBCO) containing radioactive ^35 S met. The medium was then removed and the dishes were washed with PBS 9137 mM NaCl, […], […], 8.1 mM Na2 HPO4, 1.5 mM KH2 PO4, 0.9 mM CaCl2, 0.5 mM MgCl2, pH 7.2). These solutions were stored for beta counting. The cells were lysed with 1 ml 0.1 N NaOH and placed in a tube with 500 μl Trichloroacetic acid (TCA) 10 percent to precipitate the proteins. This mixture was filtered on GF/A filters (Whatman) to eliminate unreacted ^35 S-met. The filters were washed twice with 1 ml of 10 percent TCA and once with 100 percent ethanol. The filters were dried at 80° C. for 2 hours and subjected to beta counting in Econofluor (NEN) scintillation medium.

The next experiment deals with WI38 (control) cells. The experiment is described as follows: Inhibition of cellular protein synthesis (35S methionine incorporation), WI38. The class given is cell-based. Particulars: Homo sapiens, WI-38, 48 h. On the procedure:
as §1, §2

The subject of experiment [3] is A431 tumors. The experiment is described as follows: In vivo test of Conjugate VIII, A431 tumors in nude mice. Particulars: for Initial Surface of the Tumor (A): before treatment; for Final Surface of the tumor (B): a week after last injection; for Tumor weight: tumors dissected at end of experiment. On the procedure:
In the prior art, up to 10 mg/kg doses have been used in mice (S. Schwarz, et al., 1975, Cancer Chem. Rep., 6, 2, 107-114). The drug was injected either directly in the tumor or in the caudal vein 4 times at 3 days intervals. The measures were taken a week after the last injection.

The subject of experiment [4] is A431 tumors. In words: In vivo test of Conjugate IX, A431 tumors in nude mice. Particulars: 2 mg/kg daunomycin every 3 days over 9 days, caudal vein. The text has this:
The in vivo tests reported in Example 8 were repeated using Conjugate IX.

Experiment [5] concerns A431 squamous carcinoma cells. The experiment is described as follows: Internalization of 125I-labelled EGF and Conjugate VIII in A431 cells. It is filed as cell-based, human. Particulars: A431, 6 hrs at 37° C. As to the method: (§3) The Conjugate VIII, radiolabeled with ^125 I on the EGF, was incubated with confluent cell cultures of A431 and WI38 cells for 6 hrs at 37° C. in solution A (4 parts DMEM and 1 part of 50 mM Tris, 100 mM NaCl and 0.1 percent BSA adjusted to pH 7.4). The cells were then washed four times with ice-cold PBS+1 mM CaCl2 and 1 mM MgCl2. Fifty percent trichloroacetic acid was added in a proportion of 1:5 to the pooled solution A and PBS, and the mixture was counted on a gamma counter. The cell membrane was destablized by treatment on ice with 200 mM acetic acid and 150 mM NaCl (solution B) for 6 minutes. The solution B was then removed and the cells washed twice with solution B. These pooled B solutions were assayed for ^125 I. This treatment releases the […] to the cell surface. The cells were then completely dissolved in 0.2 N NaOH. The radioactivity found there represented the internalized Conjugate VIII. In control experiments, using free EGF ^125 I, a proportion of the EGF is recycled to the medium, therefore lowering the intracellular EGF. The results on the internalization of ^125 I labelled EGF and Conjugate VIII in WI38 and A431 cell cultures are given in the following Table in terms of counts per min (background 30 cpm) for successively: EGF not integrated in the cell, EGF bound to the membrane, and EGF in the intra-cellular compartment. The percent of total cpm is given in brackets.

Another experiment relates to WI38 fibroblasts. In words: Internalization of 125I-labelled EGF and Conjugate VIII in WI38 cells. Particulars: WI38, 6 hrs at 37° C. The class given is cell-based. On the procedure:
as §3

The mark [6] stands for this setting: I.T., 0.1 mg/kg daunomycin 4 times at 3 days intervals.

As a reminder, the inhibition is the change of the read-out against control, counted positive when it falls. As to `COc1cccc2c1C(=O)c1c(O)c3c(c(O)c1C2=O)C[C@@](O)(C(C)=O)C[C@@H]3O[C@H]1C[C@H](N)[C@H](O)[C@H](C)O1` [Daunomycin, daunomycin], the “Cell death by Trypan Blue exclusion” value in experiment [1] is reported as “Exclusion of the dye from the cells demonstrates the viability thereof”. For the same compound, in experiment [2], the “Cells remaining in mixed culture” value is “all cells, malignant and normal, had died after 15 days”. In addition, the inhibition at 0.1 µg/mL was 30% with A431 malignant cells and 10% with WI38 (control) cells. The inhibition at 0.5 µg/mL was 68% in the experiment on A431 malignant cells and 46% in the experiment on WI38 (control) cells. In addition, the inhibition at 1 µg/mL in the experiment with A431 malignant cells worked out at 97%; in the experiment on WI38 (control) cells, 80%. Besides, the results for the “Initial Surface of the Tumor (A)” value in the experiment on A431 tumors [3] (I.T. (intratumor)) and in the experiment on A431 tumors [3] (I.V. (caudal vein)) were 9 and 30.5, respectively. In addition, the “Growth coefficient (B/A)” value in the experiment on A431 tumors [3] (setting [6]) is 18.7. For the same compound, the “Final Surface of the tumor (B)” value in the experiment on A431 tumors [3] (setting [6]) is recorded as 170; in the experiment with A431 tumors [3] (I.V., 0.1 mg/kg daunomycin 4 times at 3 days intervals) it was 500. Moreover, the Tumor weight is on record as 1.178 g in the experiment with A431 tumors [3] (I.T.) and 6.789 g with A431 tumors [3] (I.V.). Further, the Tumor diameter in the experiment with A431 tumors [4] (day 0) is listed as 10 mm; in the experiment with A431 tumors [4] (day 4) it was 12 mm; in the experiment with A431 tumors [4] (day 7), 15 mm; in the experiment on A431 tumors [4] (day 11) it was 20 mm; in the experiment on A431 tumors [4] (day 14), 21 mm.
Turning to “EGF: Epidermal Growth Factor, a single polypeptide of 53 amino acids (SIGMA)”, in experiment [5], the “Intracellular, percent of total cpm” value is on record as 14%; the “Membrane, percent of total cpm” value was 0%; the “Unbound, percent of total cpm” value is recorded as 86%. In experiment [5] (background 30 cpm), the Intracellular was 111 cpm, the Membrane came out at 31 cpm and the “Unbound (EGF not integrated in the cell)” value is listed as 536 cpm. Moreover, in the experiment with WI38 fibroblasts, the “Intracellular, percent of total cpm” value was 7%; the “Membrane bound, percent of total cpm” value is 0%; the “Unbound, percent of total cpm” value is given as 93%. In the experiment with WI38 fibroblasts (background 30 cpm), the Intracellular amounted to 67 cpm, the Membrane bound is 29 cpm and the “Unbound (EGF not integrated in the cell)” value amounted to 530 cpm. In addition, the Tumor diameter in the experiment with A431 tumors [4] (day 0) was found to be 10 mm. Further, in the experiment on A431 tumors [4] (day 4), the Tumor diameter is on record as 13 mm. The compound further had a Tumor diameter with A431 tumors [4] (day 7) of 14 mm. Further, the Tumor diameter with A431 tumors [4] (day 11) came to 17 mm. Moreover, the Tumor diameter in the experiment with A431 tumors [4] (day 14) is recorded as 17 mm.

These data come from patent US5087616A, “Cytotoxic drug conjugates and their delivery to tumor cells” (Battelle Memorial Institute, priority 1986, dated 1992).
